From patent US9242944B2 (UNIVERSITY OF MARYLAND, BALTIMORE, priority 2013, dated 2016)
Read-outs that look alike come from different tables or passages of the source.

Target: T1, c-Myc-Max heterodimers (Homo sapiens, UniProt P01106)
T1 construct: c-Myc bHLH-ZIP domain (residues 353-437); His6-TEV protease substrate tag; made in house; host or cells: bacteria (pET151 vector for Myc)
Assay: Electrophoretic mobility shift assay (EMSA) of c-Myc-Max dimerization and DNA binding
Procedure: The ability of a small-molecule to interfere with c-Myc-Max dimerization is conveniently assessed through the disruption of the c-Myc-Max/DNA ternary complex by an electrophoretic mobility shift assay (EMSA) using fluorescently-labelled DNA, and subsequently quantified by densitometry.(23) Accordingly, a 100-member library was screened for the ability to disrupt the c-Myc-Max dimer.
These were performed essentially as described previously (23). Briefly, Ni^+-agarose-purified His6-tagged c-Myc bHLH-ZIP domain (residues 353-437) was used for all binding assays as was the His6-tagged 151 residue isoform of Max, otherwise referred to as Max(S) (residues 2-151) (21). For each binding reaction, the proteins were allowed to heterodimerize at a concentration of 30 nM each in the presence of 20 nM of a 5′-HEX-tagged double-stranded 22-base pair oligonucleotide 5′-hexachlorofluoresceine-[…]-3′ (SEQ ID NO: 1) containing a consensus c-Myc binding site (CACGTG) and the indicated concentration of small molecule inhibitor. Control reactions contained the same oligonucleotide in the presence of 60 nM of the 160 residue isoform of Max referred to as Max(L) (21). All binding reactions were prepared in a buffer consisting of PBS (pH 7.3), 1 mmol/L EDTA, 0.1% NP40, 5% glycerol, 1 mmol/L DTT, and 0.4 mg/mL bovine serum albumin. Electrophoresis was performed on 8% polyacrylamide/bisacrylamide (80:1) gels in […] (23). Each reaction was run on at least three separate occasions.
EMSAs were performed essentially as described utilizing bacterially-expressed recombinant proteins purified nearly to homogeneity.(23) Experiments with Max homodimers used the His6-tagged 160 amino acid isoform of the protein, termed Max(L), which homodimerizes and binds DNA well. For studies with Myc-Max heterodimers, the His6-tagged 151 residue isoform of Max [Max(S)] was used, which binds DNA well as a heterodimer with Myc but poorly as a homodimer.(23) Recombinant Myc protein, expressed in the pET151 vector, consisted of the His6-TEV protease substrate-tagged 85 amino acid bHLH-ZIP domain. (23) Each protein was purified by Ni-agarose affinity chromatography as previously described. (23) The His6-TEV tag was removed from the Myc protein by TEV protease cleavage followed by re-purification using Ni-agarose affinity chromatography to remove the His6-TEV protease and the cleaved His6-TEV tag as previously described. Binding assays were performed with 30 nM of each protein and 30 nM of a 6-carboxy-2′,4,4′,5′,7,7′-hexachlorofluorescein (HEX)-tagged double-stranded oligonucleotide containing a consensus Myc binding site (IDT, Coralville, Iowa).(23)

[1] = read-out: Inhibition at 100 μM (%), Table 1, 100 μM compound, Myc-Max/DNA band intensity relative to control
[2] = Table 1, 100 μM compound, Myc-Max/DNA band intensity relative to control, read-out: Inhibition at 100 μM (%)
[3] = Table 10, 100 μM small-molecule, EMSA, read-out: % Inhibition of c-Myc-Max Dimerization
[4] = Table 2, 100 μM compound, Myc-Max/DNA band intensity relative to control, read-out: Inhibition at 100 μM (%)

T1 sequence (P01106 368-452, one chain of several): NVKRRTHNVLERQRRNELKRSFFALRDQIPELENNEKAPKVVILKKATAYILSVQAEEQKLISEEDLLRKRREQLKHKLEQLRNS

| Compound | inhibition at 100 µM [3] | also measured |
| --- | --- | --- |
| O=[N+]([O-])c1ccc(Nc2ccccc2)c2nonc12 [Compound 3a, 7-Nitro-N-phenylbenzo[c][1,2,5]oxadiazol-4-amine] | – | inhibition at 100 µM [1]: 2% |
| O=[N+]([O-])c1ccc(NC2CCCCC2)c2nonc12 [Compound 3b, N-Cyclohexyl-7-nitrobenzo[c][1,2,5]oxadiazol-4-amine] | – | inhibition at 100 µM [2]: 11% |
| O=[N+]([O-])c1ccc(NCc2ccccc2)c2nonc12 [Compound 3c, N-Benzyl-7-nitrobenzo[c][1,2,5]oxadiazol-4-amine] | – | inhibition at 100 µM [2]: 0% |
| O=[N+]([O-])c1ccc(N2CCCCC2)c2nonc12 [Compound 3d, 4-Nitro-7-(piperidin-1-yl)benzo[c][1,2,5]oxadiazole] | – | inhibition at 100 µM [2]: 10% |
| Cc1ccccc1Nc1ccc([N+](=O)[O-])c2nonc12 [Compound 3e, 7-Nitro-N-(o-tolyl)benzo[c][1,2,5]oxadiazol-4-amine] | – | inhibition at 100 µM [2]: 11% |
| O=[N+]([O-])c1ccc(Nc2ccccc2Br)c2nonc12 [Compound 3f, N-(2-Bromophenyl)-7-nitrobenzo[c][1,2,5]oxadiazol-4-amine] | – | inhibition at 100 µM [2]: ~40% |
| O=[N+]([O-])c1ccc(Nc2ccccc2O)c2nonc12 [Compound 3g, 2-((7-Nitrobenzo[c][1,2,5]oxadiazol-4-yl)amino)phenol] | – | inhibition at 100 µM [2]: 13% |
| COc1ccccc1Nc1ccc([N+](=O)[O-])c2nonc12 [Compound 3h, N-(2-Methoxyphenyl)-7-nitrobenzo[c][1,2,5]oxadiazol-4-amine] | – | inhibition at 100 µM [2]: 0% |
| O=C(O)c1ccccc1Nc1ccc([N+](=O)[O-])c2nonc12 [Compound 3i, 2-((7-Nitrobenzo[c][1,2,5]oxadiazol-4-yl)amino)benzoic acid] | – | inhibition at 100 µM [2]: 8% |
| Cc1cccc(-c2cc(C(=O)O)ccc2Nc2ccc([N+](=O)[O-])c3nonc23)c1 [Compound 3j53-5] | 16% | – |
| O=[N+]([O-])c1ccc(Oc2ccccc2-c2ccccc2)c2nonc12 [Compound 3j, 4-([1,1′-Biphenyl]-2-yloxy)-7-nitrobenzo[c][1,2,5]oxadiazole] | – | inhibition at 100 µM [2]: 36% |
| O=C(O)c1ccc(Nc2ccc([N+](=O)[O-])c3nonc23)c(-c2ccccc2)c1 [Compound 3jc42] | 10% | – |
| O=C(O)c1ccc(Nc2ccc([N+](=O)[O-])c3nonc23)c(-c2ccccc2-c2ccccc2)c1 [Compound 3jc53-1] | 18% | – |
| O=C(O)c1ccc(Nc2ccc([N+](=O)[O-])c3nonc23)c(-c2cccc(-c3ccccc3)c2)c1 [Compound 3jc53-2] | 0% | – |
| O=C(O)c1ccc(Nc2ccc([N+](=O)[O-])c3nonc23)c(-c2ccc(-c3ccccc3)cc2)c1 [Compound 3jc53-3] | 41% | – |
| Cc1ccccc1-c1cc(C(=O)O)ccc1Nc1ccc([N+](=O)[O-])c2nonc12 [Compound 3jc53-4] | 7% | – |
| N#Cc1ccccc1-c1cc(C(=O)O)ccc1Nc1ccc([N+](=O)[O-])c2nonc12 [Compound 3jc53-7] | 44% | – |
| N#Cc1cccc(-c2cc(C(=O)O)ccc2Nc2ccc([N+](=O)[O-])c3nonc23)c1 [Compound 3jc53-8] | 23% | – |
| N#Cc1ccc(-c2cc(C(=O)O)ccc2Nc2ccc([N+](=O)[O-])c3nonc23)cc1 [Compound 3jc53-9] | 13% | – |
| CCc1ccc(-c2cc(C(=O)O)ccc2Nc2ccc([N+](=O)[O-])c3nonc23)cc1 [Compound 3jc53-10] | 34% | – |
| CC(C)c1ccc(-c2cc(C(=O)O)ccc2Nc2ccc([N+](=O)[O-])c3nonc23)cc1 [Compound 3jc53-11] | 0% | – |

| Compound | inhibition at 100 µM [3] | also measured |
| --- | --- | --- |
| CC(C)(C)c1ccc(-c2cc(C(=O)O)ccc2Nc2ccc([N+](=O)[O-])c3nonc23)cc1 [Compound 3jc53-12] | 2% | – |
| O=C(O)c1ccc(Nc2ccc([N+](=O)[O-])c3nonc23)c(-c2ccccc2O)c1 [Compound 3jc53-13] | 0% | – |
| COc1ccc(-c2cc(C(=O)O)ccc2Nc2ccc([N+](=O)[O-])c3nonc23)cc1 [Compound 3jc53-14] | 4% | – |
| O=C(O)c1ccc(-c2cc(C(=O)O)ccc2Nc2ccc([N+](=O)[O-])c3nonc23)cc1 [Compound 3jc53-15] | 6% | – |
| Cc1ccccc1-c1cc(Nc2ccc([N+](=O)[O-])c3nonc23)ccc1C(=O)O [Compound 3jc62-1] | 0% | – |
| Cc1cccc(-c2cc(Nc3ccc([N+](=O)[O-])c4nonc34)ccc2C(=O)O)c1 [Compound 3jc62-2] | 0% | – |
| Cc1ccc(-c2cc(Nc3ccc([N+](=O)[O-])c4nonc34)ccc2C(=O)O)cc1 [Compound 3jc62-3] | 0% | – |
| N#Cc1ccccc1-c1cc(Nc2ccc([N+](=O)[O-])c3nonc23)ccc1C(=O)O [Compound 3jc62-4] | 0% | – |
| N#Cc1cccc(-c2cc(Nc3ccc([N+](=O)[O-])c4nonc34)ccc2C(=O)O)c1 [Compound 3jc62-5] | 8% | – |
| N#Cc1ccc(-c2cc(Nc3ccc([N+](=O)[O-])c4nonc34)ccc2C(=O)O)cc1 [Compound 3jc62-6] | 25% | – |
| O=C(O)c1ccc(Nc2ccc([N+](=O)[O-])c3nonc23)cc1-c1ccccc1 [Compound 3jc62-7] | 0% | – |
| O=C(O)c1cccc(Nc2ccc([N+](=O)[O-])c3nonc23)c1 [Compound 3m, 3-((7-Nitrobenzo[c][1,2,5]oxadiazol-4-yl)amino)benzoic acid] | – | inhibition at 100 µM [2]: 0% |
| O=[N+]([O-])c1ccc(Nc2ccc(-c3ccccc3)cc2)c2nonc12 [Compound 3n] | – | inhibition at 100 µM [1]: 28% |
| Cc1ccc(Nc2ccc([N+](=O)[O-])c3nonc23)cc1 [Compound 3o, 7-Nitro-N-(p-tolyl)benzo[c][1,2,5]oxadiazol-4-amine] | – | inhibition at 100 µM [1]: 0% |
| O=C(O)c1ccc(Nc2ccc([N+](=O)[O-])c3nonc23)c(-c2ccc(C(F)(F)F)cc2)c1 [Compound 4jc23-6] | 0% | – |
| CC(=O)Nc1ccc(Nc2ccccc2-c2ccccc2)c2nonc12 [Compound 5a, N-(7-([1,1′-Biphenyl]-2-ylamino)benzo[c][1,2,5]oxadiazol-4-yl)acetamide] | – | inhibition at 100 µM [4]: 2% |
| O=C(Nc1ccc(Nc2ccccc2-c2ccccc2)c2nonc12)C(F)(F)F [Compound 5b, N-(7-([1,1′-Biphenyl]-2-ylamino)benzo[c][1,2,5]oxadiazol-4-yl)-2,2,2-trifluoroacetamide] | – | inhibition at 100 µM [4]: 25% |
| COC(=O)Nc1ccc(Nc2ccccc2-c2ccccc2)c2nonc12 [Compound 5c, Methyl (7-([1,1′-biphenyl]-2-ylamino)benzo[c][1,2,5]oxadiazol-4-yl)carbamate] | – | inhibition at 100 µM [4]: 0% |
| O=C(O)CCC(=O)Nc1ccc(Nc2ccccc2-c2ccccc2)c2nonc12 [Compound 5d, 4-((7-([1,1′-Biphenyl]-2-ylamino)benzo[c][1,2,5]oxadiazol-4-yl)amino)-4-oxobutanoic acid] | – | inhibition at 100 µM [4]: 17% |
| O=C(O)COCC(=O)Nc1ccc(Nc2ccccc2-c2ccccc2)c2nonc12 [Compound 5e, 2-(2-((7-([1,1′-Biphenyl]-2-ylamino)benzo[c][1,2,5]oxadiazol-4-yl)amino)-2-oxoethoxy)acetic acid] | – | inhibition at 100 µM [4]: 33% |
| O=[N+]([O-])c1ccc(Nc2ccccc2-c2ccccc2)cc1 [Compound 7, N-(4-Nitrophenyl)-[1,1′-biphenyl]-2-amine] | – | inhibition at 100 µM [4]: 0% |
